In patent US9546153B2, “Bicyclic heterocycle substituted pyridyl compounds useful as kinase modulators” (BRISTOL-MYERS SQUIBB COMPANY, priority 2012, dated 2017):
Several values for one entry are separate records, joined by “and”; a condition that tells them apart may be missing. Equal entries are not always repeated. Where two headings read alike, the source gives them in different places.

Assays:
[1] = biological target: IRAK4 (Homo sapiens (Human), UniProt Q9NWZ3); experiment: IRAK4 Inhibition Assay; type: biochemical; details: ATP 500 μM; IRAK4 0.6 nM; 60 min at room temperature
Experimental: The assays were performed in U-bottom 384-well plates. […] The reaction was initiated by the combination of IRAK4 with substrates and test compounds. The reaction was incubated at room temperature for 60 min. and terminated by adding 45 μL of 35 mM EDTA to each sample. The reaction mixture was analyzed on the Caliper LABCHIP® 3000 (Caliper, Hopkinton, Mass.) by electrophoretic separation of the fluorescent substrate and phosphorylated product.

[2] = test system: TLR2 induced IL-6 in peripheral blood mononuclear cells (PBMCs); experiment: PBMC TLR2 Induced IL-6 Assay; type: cell-based, human; details: human PBMCs, 10 μg/ml lipoteichoic acid for 5 hours, IL-6 by ELISA; for IC50: value without asterisk, read-out: Cell IC50; for EC50: EC50 determinations are indicated with an asterisk, read-out: Cell EC50 (asterisk)
Experimental: Peripheral blood mononuclear cells (PBMCs) were isolated from human blood containing the anti-coagulant EDTA (2.5 mM) by centrifugation over a FICOLL® gradient. PBMCs (250000 cells/well) were cultured in assay media (RPMI with 10% heat inactivated FCS) with compounds for 30 minutes at 37° C. in a 5% CO2 incubator. Following pretreatment with compounds, cells were stimulated for 5 hours with 10 μg/ml lipoteichoic acid (Invivogen, San Diego, Calif.), a TLR2 agonist. At the end of the culture, plates were centrifuged at 1800 rpm for 10 minutes to pellet the cells. Supernatants were harvested and analyzed for IL-6 levels by ELISA (BD Biosciences, San Jose, Calif.). Inhibition was calculated as either an IC50 or EC50. EC50 determinations are indicated with an asterisk.

Chain of IRAK4 (Q9NWZ3 whole entry, species assumed): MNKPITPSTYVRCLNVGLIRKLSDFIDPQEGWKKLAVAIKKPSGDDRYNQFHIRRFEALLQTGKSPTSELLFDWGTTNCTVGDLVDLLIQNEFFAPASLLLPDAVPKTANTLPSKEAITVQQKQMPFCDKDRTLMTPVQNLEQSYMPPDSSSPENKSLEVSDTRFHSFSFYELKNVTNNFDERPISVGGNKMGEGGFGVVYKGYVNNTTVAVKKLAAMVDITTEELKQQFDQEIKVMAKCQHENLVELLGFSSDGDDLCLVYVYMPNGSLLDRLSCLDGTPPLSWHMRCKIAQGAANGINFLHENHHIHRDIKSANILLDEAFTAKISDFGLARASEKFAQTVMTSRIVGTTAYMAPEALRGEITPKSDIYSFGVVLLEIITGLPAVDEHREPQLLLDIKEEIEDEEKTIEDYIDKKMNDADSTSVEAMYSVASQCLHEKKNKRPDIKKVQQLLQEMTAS

| Compound | IC50 [1] | IC50 ([2]; Homo sapiens, PBMC, 5 h) | other results |
| --- | --- | --- | --- |
| CC1COCCC1Nc1cc(Nc2ccc3ncsc3c2)ncc1C(=O)NC[C@@H](F)C(C)(C)O (stereo partly drawn) [Example 232] | 35.7 nM |  | IC50 [2]: 697 nM |
| CC(C)Nc1cc(Nc2ccc3ncsc3c2)ncc1C(=O)NC12CCC(N)(CC1)C2 [Example 224] | 9.6 nM | 280 nM |  |
| CC(C)(O)[C@H](F)CNC(=O)c1cnc(Nc2ccc3ncsc3c2)cc1NCC1CCCO1 (stereo partly drawn) [Example 93] | 16 nM | 619 nM |  |
| CC(C)(O)[C@H](F)CNC(=O)c1cnc(Nc2ccc3ncccc3c2)cc1NC1CC1 [Example 58] | 7 nM | 545 nM |  |
| Cc1cnc2ccc(Nc3cc(NC(C)C)c(C(=O)NC[C@@H](F)C(C)(C)O)cn3)nn12 [Example 277] | 3.6 nM | 180 nM |  |
| CC(C)(O)[C@H](F)CNC(=O)c1cnc(Nc2ccc3ncsc3n2)cc1NC1CC1 [Example 308] | 0.5 nM | 144 nM |  |
| CNC(=O)c1ccc(Nc2cc(Nc3ccc4ncsc4c3)ncc2C(=O)NC[C@@H](F)C(C)(C)O)cc1 [Example 319, (R)-6-(benzo[d]thiazol-6-ylamino)-N-(2-fluoro-3-hydroxy-3-methylbutyl)-4-(4-(methylcarbamoyl)phenylamino)nicotinamide] | 3 nM | 315 nM |  |
| CC(C)(F)CNc1cc(Nc2ccc3ncsc3n2)ncc1C(=O)NC[C@@H](F)C(C)(C)O [Example 314] | 2.7 nM | 115 nM |  |
| CC(C)(F)CNc1cc(Nc2ccc3ncsc3c2)ncc1C(=O)NC[C@@H](F)C(C)(C)O [Example 126] | 1.5 nM | 102 nM |  |
| Cc1nc2ccc(Nc3cc(NC4CCCC4F)c(C(=O)NC[C@@H](F)C(C)(C)O)cn3)cc2s1 (stereo partly drawn) [Example 349] | 8.6 nM |  | IC50 [2]: 475 nM |
| CC(Nc1cc(Nc2ccc3ncsc3c2)ncc1C(=O)NC[C@@H](F)C(C)(C)O)C1CC1 (stereo partly drawn) [Example 106] | 58 nM | 570 nM |  |
| CC(C)Nc1cc(Nc2ccc3ncsc3c2)ncc1C(=O)NCC[C@@H](C)NC(=O)c1ccccc1 [Example 185] | 4.4 nM | 620 nM |  |
| CC(C)(O)[C@H](F)CNC(=O)c1cnc(Nc2ccc3ncsc3c2)cc1NCc1ccc(Cl)cc1 [Example 167] | 9.8 nM | 526 nM |  |
| CC(C)(O)[C@H](F)CNC(=O)c1cnc(Nc2ccn3nccc3n2)cc1NC1CCOCC1 [Example 237] | 3.1 nM | 222 nM |  |
| CC(C)Nc1cc(Nc2ccc3ncsc3c2)ncc1C(=O)NCC[C@@H](C)NC(=O)OC(C)C [Example 183] | 3.9 nM | 436 nM |  |
| CC(C)Nc1cc(Nc2ccc3ncsc3c2)ncc1C(=O)NCC[C@@H](C)NC(=O)CC1CCOCC1 [Example 189] | 3.4 nM | 300 nM |  |
| CC(C)(O)[C@H](F)CNC(=O)c1cnc(Nc2ccc3nsnc3c2)cc1NC1CCCC1 [Example 36] | 8.2 nM | 893 nM |  |
| CCC(C)Nc1cc(Nc2ccn3nccc3c2)ncc1C(=O)NC[C@@H](F)C(C)(C)O (stereo partly drawn) [Example 302] | 5.6 nM | 426 nM |  |
| CC(C)(F)CNc1cc(Nc2ncc3ncsc3c2F)ncc1C(=O)NC1CCC(C(C)(C)O)CC1 (stereo not drawn) [Example 489] | 8.2 nM |  | EC50 ([2]; Homo sapiens, PBMC, 5 h): 374 nM |
| CC(C)Nc1cc(Nc2ccc3ncsc3c2)ncc1C(=O)NC1CCCC(C(C)(C)O)C1 (stereo not drawn) [Example 425] | 13.1 nM | 560 nM |  |
| CC(C)Nc1cc(Nc2nc3ccnn3cc2F)ncc1C(=O)NC1CCC(C(C)(C)O)CC1 (stereo not drawn) [Example 457] | 3.4 nM | 1550 nM |  |
| CC(C)Nc1cc(Nc2cnc3[nH]ccc3c2)ncc1C(=O)NC[C@@H](F)C(C)(C)O [Example 415] | 6.3 nM | 502 nM |  |
| CC(C)(O)C1CCC(NC(=O)c2cnc(Nc3ccc4ncsc4c3)cc2NC2CCCOC2)CC1 (stereo not drawn) [Example 491] | 5 nM |  | EC50 [2]: 281 nM |
| CC1CCCC1Nc1cc(Nc2ccc3ncsc3c2)ncc1C(=O)NC[C@@H](F)C(C)(C)O (stereo partly drawn) [Example 105] | 1.9 nM |  | IC50 [2]: 321 nM |
| CC(C)(O)[C@H](F)CNC(=O)c1cnc(Nc2ccc3ncccc3n2)cc1NC1CCCC1F (stereo partly drawn) [Example 405] | 5.8 nM |  | IC50 [2]: 788 nM |
| CC(C)(O)[C@H](F)CNC(=O)c1cnc(Nc2ccc3ncsc3c2)cc1NC12CCC(NC(=O)c3ccncc3)(CC1)C2 [Example 399] | 3.1 nM | 203 nM |  |

| Compound | IC50 [1] | IC50 ([2]; Homo sapiens, PBMC, 5 h) | other results |
| --- | --- | --- | --- |
| CC(C)(O)C(F)CNC(=O)c1cnc(Nc2ccc3ncsc3c2)cc1N[C@H]1CCCC(F)C1 (stereo partly drawn) [Example 329, 6-(benzo[d]thiazol-6-ylamino)-N-(2-fluoro-3-hydroxy-3-methylbutyl)-4-(3-fluorocyclohexylamino)nicotinamide] | 3.2 nM | 113 nM |  |
| Cc1cc2nc(Nc3cc(NC(C)C)c(C(=O)NC[C@@H](F)C(C)(C)O)cn3)ccn2n1 [Example 379] | 6.3 nM |  |  |
| CC(C)Nc1cc(Nc2ncc3ncsc3c2F)ncc1C(=O)NC[C@@H](F)C(C)(C)O [Example 440] |  | 330 nM |  |
| Cc1cc2nc(Nc3cc(NC(C)C)c(C(=O)NC[C@@H](F)C(C)(C)O)cn3)ccn2n1 [Example 250] |  | 748 nM |  |
| CC(C)Nc1cc(Nc2nc3ccnn3cc2F)ncc1C(=O)NCC(F)(F)C(C)(C)O [Example 522] |  | 795 nM |  |
| CC(C)CCNC(=O)c1cnc(Nc2ccc3ncsc3c2)cc1NC(C)C [Example 210] |  | 551 nM |  |
| O=C(NC[C@@H](F)CO)c1cnc(Nc2ccc3[nH]c(=O)sc3c2)cc1NC1CCCC1 [Example 6] |  | 231 nM |  |
| CC(C)(O)[C@H](F)CNC(=O)c1cnc(Nc2nc3ccnn3cc2F)cc1NC1CCCC1O (stereo partly drawn) [Example 465] |  |  | IC50 [2]: 388 nM |
| CC(C)(O)[C@H](F)CNC(=O)c1cnc(Nc2ccc3ncsc3c2)cc1NCC1CCCC1O (stereo partly drawn) [Example 112] |  |  | IC50 [2]: 203 nM |
| CC(C)(O)[C@H](F)CNC(=O)c1cnc(Nc2ccc3ncsc3c2)cc1Nc1ccc(-c2cc[nH]n2)cc1 [Example 414] |  | 256 nM |  |
| CC(C)Nc1cc(Nc2nc3cccnc3cc2F)ncc1C(=O)NC[C@@H](F)C(C)(C)O [Example 499] |  |  | EC50 ([2]; Homo sapiens, PBMC, 5 h): 72 nM |
| CC(C)(O)[C@H](F)CNC(=O)c1cnc(Nc2ccc3ncsc3c2)cc1NCC1CCCC1F (stereo partly drawn) [Example 116] |  |  | IC50 [2]: 296 nM |
| CC(C)(O)[C@H](F)CNC(=O)c1cnc(Nc2nc3ccnn3cc2F)cc1NC1CCCC1F (stereo partly drawn) [Example 463] |  |  | IC50 [2]: 204 nM |
| CC(C)(O)[C@H](F)CNC(=O)c1cnc(Nc2ccc3nonc3c2)cc1NC1CC1 [Example 80] |  | 271 nM |  |
| CC1COCCC1Nc1cc(Nc2ccc3ncsc3c2)ncc1C(=O)NC[C@@H](F)C(C)(C)O (stereo partly drawn) [Example 234] | 4.4 nM and 3.2 nM |  |  |
| CC(C)Nc1cc(Nc2ccc3nsnc3c2)ncc1C(=O)NC[C@@H](F)C(O)C(C)C (stereo partly drawn) [Example 22] |  |  | IC50 [2]: 456 nM |
| CC(C)(O)[C@H](F)CNC(=O)c1cnc(Nc2ccc3ncsc3c2)cc1NCC1CCCC1O (stereo partly drawn) [Example 113] |  |  | IC50 [2]: 803 nM |
| CC(C)(O)[C@H](F)CNC(=O)c1cnc(Nc2ccn3nccc3n2)cc1NC1CCOCC1F (stereo partly drawn) [Example 266] |  |  | IC50 [2]: 548 nM |
| CC(C)(O)[C@H](F)CNC(=O)c1cnc(Nc2nc3ccnn3cc2F)cc1NC1CCCC1F (stereo partly drawn) [Example 472] |  |  | IC50 [2]: 1360 nM |
| CC(C)Nc1cc(Nc2ccc3nsnc3c2)ncc1C(=O)NC[C@@H](F)C(O)C(C)C (stereo partly drawn) [Example 23] |  |  | IC50 [2]: 165 nM |
| CC(C)(O)[C@H](F)CNC(=O)c1cnc(Nc2nc3ccnn3cc2F)cc1N[C@H]1CCC[C@H]1F [Example 488] |  |  | EC50 ([2]; Homo sapiens, PBMC, 5 h): 192 nM |
| CN(C)C(=O)c1ccc(Nc2cc(Nc3ccc4ncsc4c3)ncc2C(=O)NC[C@@H](F)C(C)(C)O)cc1 [Example 323] |  | 207 nM |  |
| CC(C)(O)[C@H](F)CNC(=O)c1cnc(Nc2ccc3ncncc3c2)cc1NC1CCCC1F (stereo partly drawn) [Example 345] |  | 246 nM |  |
| CC(C)(O)[C@H](F)CNC(=O)c1cnc(Nc2nc3ccnn3cc2F)cc1NC1CCCC1F (stereo partly drawn) [Example 471] |  |  | IC50 [2]: 1200 nM |
| CC(C)(O)[C@H](F)CNC(=O)c1cnc(Nc2nc3ccnn3cc2F)cc1NC1CCCC1O (stereo partly drawn) [Example 464] |  |  | IC50 [2]: 843 nM |
